Source: publication PMC12308805, “Ultrahigh-Throughput Virtual Screening Strategies against PPI Targets: A Case Study of STAT Inhibitors” (Journal of Chemical Information and Modeling, 2025)
Several values for one entry are separate records, joined by “and”; a condition that tells them apart may be missing. Equal values may be shown once.

Experiments:
Format in all cases: binding
[1] = biological target: T1, STAT5b (136–703) SH2 domain (Homo sapiens, UniProt P51692); experiment: Fluorescence polarization assay (FP-assay), STAT5b SH2 domain; design: key to identified as active in FP-assay: A compound was identified as active, if it had a mean IC50 value under 100 μM; conditions: for IC50: FP-assay, mean IC50, at least three biological replicates
T1 sequence (P51692 136-703): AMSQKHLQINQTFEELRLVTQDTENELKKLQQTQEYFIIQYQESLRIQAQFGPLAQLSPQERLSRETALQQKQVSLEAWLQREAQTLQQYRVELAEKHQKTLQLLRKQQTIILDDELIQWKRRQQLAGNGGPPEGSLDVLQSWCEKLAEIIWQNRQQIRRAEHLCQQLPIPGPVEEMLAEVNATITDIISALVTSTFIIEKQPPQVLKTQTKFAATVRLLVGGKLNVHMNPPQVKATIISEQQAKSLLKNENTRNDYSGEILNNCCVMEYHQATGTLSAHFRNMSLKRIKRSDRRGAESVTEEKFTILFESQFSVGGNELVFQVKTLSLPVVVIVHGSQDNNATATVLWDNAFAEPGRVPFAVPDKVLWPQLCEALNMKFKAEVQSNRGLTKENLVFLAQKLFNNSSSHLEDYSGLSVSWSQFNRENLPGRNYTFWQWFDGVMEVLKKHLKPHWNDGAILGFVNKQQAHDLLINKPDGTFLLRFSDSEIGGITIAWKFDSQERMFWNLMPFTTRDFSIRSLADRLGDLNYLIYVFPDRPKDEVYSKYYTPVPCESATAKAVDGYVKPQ
Experimental: (§1) The respective protocols for the expression and purification of the STAT3 SH2 and STAT5b SH2 domains were published in our recent works. Fluorescence polarization assays (FP-assays) were performed on a Molecular Devices SpectraMax iD5Multimode Microplate Reader (San Jose, CA, USA) using Greiner black 384-well flat-bottom nonbinding microplates with 40 μL final well volumes. The fluorescent peptides (5-FAM-G(pTyr)-LPQTV-NH2 and 5-FAM-G(pTyr)-LVLDKW-NH2, purchased from GenScript Biotech Ltd., Piscataway, NJ, USA), as well as the proteins, were diluted with a buffer containing 50 mM NaCl, 10 mM HEPES (4-(2-hydroxyethyl)-1-piperazineethanesulfonic acid), 1 mM EDTA (ethylenediaminetetraacetic acid), 2 mM DTT (dithiothreitol), and 0.1% Triton X-100, pH 7.5. For STAT3 (127–770), the final concentration of the protein was 200 nM, and the fluorescent peptide (5-FAM-G(pTyr)-LPQTV-NH2) was added at a final concentration of 5 nM; for STAT5b (136–703), the final concentration of the protein was 500 nM, and the fluorescent peptide (5-FAM-G(pTyr)-LVLDKW-NH2) was added at a final concentration of 10 nM. The wells were treated with varying concentrations of inhibitors (1250 to 0.11 μM final concentrations). The final DMSO content was 2.5%. After mixing, the protein and inhibitors were incubated at room temperature for 30 min, then the fluorescent peptide was added, and the plate was incubated for another 20 min prior to the fluorescence readout (extinction wavelength: 475 nm, emission wavelength: 520 nm). The measurements were carried out in at least three biological replicates. Fluorescence polarization was calculated from the perpendicular and parallel fluorescence intensities and then plotted against concentration. The IC50 values were determined after fitting quadratic dose–response curves on the data points in GraphPad Prism 8.0.1. […] All plotted curves and data points for the hit compounds are included in Section 2 of the Supporting Information.

[2] = biological target: T2, STAT5b N-terminal domain (NTD) (Homo sapiens, UniProt P51692); experiment: Isothermal titration calorimetry (ITC), STAT5b-NTD; design: key to identified as active in ITC: A compound was identified as active, if it had a mean Kd value under 100 μM; conditions: for Kd: ITC, 25 °C, 1X PBS pH 7.4, 8% DMSO, single-site fit
T2 sequence (P51692 1-126 limits assumed): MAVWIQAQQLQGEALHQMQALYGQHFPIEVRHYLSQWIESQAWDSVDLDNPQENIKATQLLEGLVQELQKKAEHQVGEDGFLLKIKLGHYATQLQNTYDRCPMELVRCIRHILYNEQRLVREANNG
Experimental: The detailed protocol for the expression and purification of the STAT5b-NTD was described in our recent work. ITC measurements were carried out on a MicroCal PEAQ-ITC microcalorimeter (Malvern Instruments, Worcestershire, UK). All protein and ligand solutions were composed of 1X PBS (pH 7.4) buffer containing 8% (V/V) DMSO to avoid buffer mismatch. Protein solutions containing 25-26 μM protein were prepared in batches prior to measurements by diluting 676 μM stock solution (stored in 1X PBS (pH 7.4) buffer at -80 °C) warmed to room temperature with 1X PBS (pH 7.4) buffer solution and an appropriate amount of DMSO. Ligand solutions were prepared by first dissolving the ligands in DMSO to acquire a 50 mM stock solution, which was then diluted to 1 mM (in the case of […]_M2 ligand) or 4 mM (all other ligands) concentration using 1X PBS (pH 7.4) buffer solution. Appropriate amounts of DMSO were also added to the solution containing 1 mM ligand to yield a 8% (V/V) DMSO content. The protein solution was loaded into the sample cell in a volume of 200 μL and was titrated at 25 °C with the ligand solution at a stirring speed of 1000 rpm and a reference heat rate of 10 μcal/s in a high feedback mode. Used initial delay was 120 s, and the injection program was composed of an initial first injection with 0.5 μL over 2 s, followed by 18 injections with 2 μL over 4 s. Injections were performed every 180 s. Blank measurements consisting of titrating the ligand into the buffer (1X PBS (pH 7.4) containing 8% (V/V) DMSO) were carried out to correct for the heat of dilution for all ligands using the appropriate injection program. Data were analyzed using the MicroCal PEAQ-ITC analysis software (version 1.22) by fitting a single-site binding curve. […] Binding curves of the identified active compounds are included in Supporting Information Figures S3-S5.

[3] = biological target: T3, STAT3 (127–770) SH2 domain (Homo sapiens, UniProt P40763); experiment: Fluorescence polarization assay (FP-assay), STAT3 SH2 domain; design: key to identified as active in FP-assay: A compound was identified as active, if it had a mean IC50 value under 100 μM; conditions: for IC50: FP-assay, mean IC50, at least three biological replicates
T3 construct: For STAT3 (127–770), the final concentration of the protein was 200 nM; made in house
T3 sequence (P40763 127-770): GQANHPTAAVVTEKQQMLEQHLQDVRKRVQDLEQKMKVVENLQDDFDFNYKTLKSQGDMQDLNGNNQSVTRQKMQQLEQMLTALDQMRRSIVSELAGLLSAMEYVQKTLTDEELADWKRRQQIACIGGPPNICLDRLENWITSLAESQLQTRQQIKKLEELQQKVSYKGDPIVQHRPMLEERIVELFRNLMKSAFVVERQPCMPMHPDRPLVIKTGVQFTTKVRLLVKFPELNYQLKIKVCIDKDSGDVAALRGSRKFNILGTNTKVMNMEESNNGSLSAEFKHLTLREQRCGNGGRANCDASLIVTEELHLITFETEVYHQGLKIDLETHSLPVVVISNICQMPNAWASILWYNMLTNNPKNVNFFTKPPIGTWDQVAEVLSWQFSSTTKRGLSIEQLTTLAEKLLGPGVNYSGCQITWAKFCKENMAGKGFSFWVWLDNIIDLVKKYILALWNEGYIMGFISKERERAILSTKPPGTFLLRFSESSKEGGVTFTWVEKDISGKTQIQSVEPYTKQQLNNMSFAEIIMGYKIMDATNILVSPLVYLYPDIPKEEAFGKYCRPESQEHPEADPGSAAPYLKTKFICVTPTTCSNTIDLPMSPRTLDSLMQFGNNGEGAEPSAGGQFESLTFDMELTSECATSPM
Experimental: as §1

SMILES: Nc1nc(NCCc2cn3ccsc3n2)cc([C@H]2C[C@H](O)C2)n1 [S5_M8, s1ccn(c12)cc(n2)CCNc3cc(nc(n3)N)[C@@H]4C[C@H](C4)O]
- identified as active in FP-assay [1]: active
- IC50 [1]: 41.2 ± 10.5 µM

SMILES: O=C(NC[C@@]1(O)CCCNC1)Nc1cc(Cl)ccc1Cl [S5N_M4, Clc(c1)ccc(Cl)c1NC(=O)NC[C@@]2(O)CCC[NH]C2]
- identified as active in ITC [2]: active
- Kd [2]: 81.3 ± 12.7 µM

SMILES: O=C(O)[C@@H](O)[C@@H](O)c1nc2ccccc2[nH]1 [S5_M7, [OH]C(=O)[C@@H](O)[C@@H](O)c([nH]1)nc(c12)cccc2]
- identified as active in FP-assay [1]: active
- IC50 [1]: 16.2 ± 8.2 µM

SMILES: O=C(O)CCCn1ccc2c(nnc3ccnn32)c1=O [S3_M13, n1ccc(nn2)n1c(c23)ccn(c3=O)CCCC([OH])=O]
- identified as active in FP-assay [3]: active
- IC50 [3]: 64.4 ± 17.7 µM

SMILES: C[C@@H](NC(=O)[C@@H]1CCCC[C@@H]1C(=O)O)c1ccncc1 [S3_M2, c1cnccc1[C@@H](C)NC(=O)[C@@H]2CCCC[C@@H]2C([OH])=O]
- identified as active in FP-assay [3]: active
- IC50 [3]: 80 ± 34.3 µM

SMILES: CC(=O)N1CC[C@@H](NC(=O)c2cc3ccccc3cc2O)[C@H](O)C1 [S5N_M6, c1cccc(c12)cc(c(O)c2)C(=O)N[C@@H]3CCN(C(=O)C)C[C@H]3O]
- identified as active in ITC [2]: active
- Kd [2]: 57.3 ± 11.9 µM

SMILES: Cc1cccc(OC[C@@H](O)CN(C(=O)NC[C@H]2CC(C(N)=O)=NO2)C(C)C)c1 [S3_E7, Cc1cc(ccc1)OC[C@@H](O)CN(C(C)C)C(=O)NC[C@H]2CC(=NO2)C(=O)N]
- identified as active in FP-assay [3]: active
- IC50 [3]: 62.7 ± 25.1 µM

SMILES: N[C@H]1C[C@@H](c2cc(N[C@H](CO)Cc3ccccc3)ncn2)C1 [S5N_M7, C1[C@H]([NH2])C[C@@H]1c(c2)ncnc2N[C@H](CO)Cc3ccccc3]
- identified as weakly binding in ITC [2]: weakly binding (weakly binding (mean Kd is higher than 100 μM))
- Kd [2]: 268 ± 37.8 µM

SMILES: O=[N+]([O-])c1ccccc1S(=O)(=O)NC[C@H](O)COc1ccc2c(c1)OCO2 [S3_E6, O=[N+]([O-])c1ccccc1S(=O)(=O)NC[C@H](O)COc(cc2)cc(c23)OCO3]
- identified as active in FP-assay [3]: active
- IC50 [3]: 21.7 ± 10.4 µM

SMILES: C[C@@](O)(CNC(=O)NCc1cccc2ccccc12)c1ccc2c(c1)OCO2 [S5N_M2, c1cccc(c12)c(ccc2)CNC(=O)NC[C@@](C)(O)c(cc3)cc(c34)OCO4]
- identified as active in ITC [2]: active
- Kd [2]: 34.9 ± 4.29 µM

SMILES: Cc1c(O)ccc2c(CC(=O)NCC(=O)NCC(=O)O)cc(=O)oc12 [S3_O10, Cc1c(O)ccc2c(CC(=O)NCC(=O)NCC(=O)[OH])cc(=O)oc12]
- identified as active in FP-assay [3]: active
- IC50 [3]: 99.9 ± 55.6 µM

SMILES: NC(=O)CSc1ccccc1C(=O)NC[C@H](O)COc1ccc2c(c1)OCO2 [S3_E4, NC(=O)CSc1ccccc1C(=O)NC[C@H](O)COc(cc2)cc(c23)OCO3]
- identified as active in FP-assay [3]: active
- IC50 [3]: 13.6 ± 6.1 µM

SMILES: COc1cnc(CSc2nc(C)cc(C)n2)cc1OCC(N)=O [S5_M2, Cc(n1)cc(C)nc1SCc2cc(c(cn2)OC)OCC(=O)N]
- identified as active in FP-assay [1]: active
- IC50 [1]: 62.4 ± 28.2 µM

SMILES: COc1ccccc1COC[C@@H](O)CN[C@H](C)c1cccc(S(N)(=O)=O)c1 [S3_E5, COc1ccccc1COC[C@@H](O)C[NH][C@H](C)c2cccc(c2)S(=O)(=O)N]
- identified as active in FP-assay [3]: active
- IC50 [3]: 26.7 ± 22.2 µM

SMILES: O=C(O)C[C@@H](O)c1nc2ccccc2[nH]1 [S5_M1, [OH]C(=O)C[C@@H](O)c([nH]1)nc(c12)cccc2]
- identified as active in FP-assay [1]: active
- IC50 [1]: 38.7 ± 13.7 µM

SMILES: Cn1c(CN2CCC(O)CC2)nnc1[C@H]1CCCN(Cc2ncc[nH]2)C1 [S5_M14, C1CC(O)CCN1Cc(n2C)nnc2[C@H]3CCCN(C3)Cc4[nH]cc[n]4]
- IC50 [1]: 13.8 ± 14.9 µM

SMILES: Cc1c(CC(=O)N[C@H](CCCCNC(N)=O)C(=O)O)c(=O)oc2cc(O)ccc12 [S5_M6, c1cc(O)cc(c12)oc(=O)c(c2C)CC(=O)N[C@@H](C([OH])=O)CCCCNC(=O)N]
- identified as weakly binding in FP-assay [1]: weakly binding (A weakly binding compound (mean IC50 value higher than 100 μM))
- IC50 [1]: 378 ± 108 µM

SMILES: O=C(CCc1nc2ccccc2[nH]1)NCc1cc(-c2ccccc2)[nH]n1 [S5_M9, c1cccc(c12)[nH]c(n2)CCC(=O)NCc3n[nH]c(c3)-c4ccccc4]
- identified as active in FP-assay [1]: active
- IC50 [1]: 42.6 ± 20.2 µM

SMILES: Nc1ccc(C(=O)O)c(C(=O)O)c1 [S3_M15, Nc1cc(C([OH])=O)c(C([OH])=O)cc1]
- identified as weakly binding in FP-assay [3]: weakly binding (A weakly binding compound (mean IC50 value higher than 100 μM))

SMILES: Nc1ccc(-n2ccc(C(=O)O)n2)nc1 [S3_B12, Nc1ccc(nc1)n1ccc(n1)C(=O)O]
- identified as weakly binding in FP-assay [3]: weakly binding (A weakly binding compound (mean IC50 value higher than 100 μM))
- IC50 [3]: > 100 µM and 104 µM

SMILES: O=C(NCC[C@@H](O)c1ccc2c(c1)OCO2)C(=O)Nc1ccc(F)c(Cl)c1 [S5N_M1, Clc(c1)c(F)ccc1NC(=O)C(=O)NCC[C@@H](O)c(cc2)cc(c23)OCO3]
- identified as weakly binding in ITC [2]: weakly binding (weakly binding (mean Kd is higher than 100 μM))
- Kd [2]: 484 ± 22.5 µM

SMILES: O=C(NCCc1cnccn1)[C@H]1CCCN(C2CCN(Cc3ccncc3)CC2)C1 [S5_M13, c1cnccc1CN(CC2)CCC2[N@@]3CCC[C@@H](C3)C(=O)NCCc4cnccn4]
- identified as active in FP-assay [1]: active

SMILES: O=C(O)c1[nH]c2ccccc2c1C(=O)O [S3_M5, [OH]C(=O)c([nH]1)c(C(=O)[OH])c(c12)cccc2]
- identified as active in FP-assay [3]: active
- IC50 [3]: 53.2 ± 46.9 µM

SMILES: NCCN(Cc1csc(COc2ccccc2)n1)C[C@@H](O)CO [S3_E8, OC[C@H](O)CN(CC[NH2])Cc1csc(n1)COc2ccccc2]
- identified as weakly binding in FP-assay [3]: weakly binding (A weakly binding compound (mean IC50 value higher than 100 μM))
- IC50 [3]: 454 ± 181 µM

SMILES: NC(=O)C1CCN(C(=O)c2ccccc2NC(=O)c2cccc(NC(=O)CCn3ccnc3)c2)CC1 [S3_E3, NC(=O)C1CCN(CC1)C(=O)c2ccccc2NC(=O)c3cccc(c3)NC(=O)CCn4cc[n]c4]
- identified as weakly binding in FP-assay [3]: weakly binding (A weakly binding compound (mean IC50 value higher than 100 μM))
- IC50 [3]: 472 ± 112 µM

SMILES: Cc1cc(=O)c(C(=O)O)c(O)[nH]1 [S3_M16, [OH]C(=O)c1c(=O)cc(C)[nH]c1O]
- IC50 [3]: 111 ± 64.7 µM
